Consider 42 compounds from ChEMBL document CHEMBL4831500, “Discovery of first-in-class imidazothiazole-based potent and selective ErbB4 (HER4) kinase inhibitors” (Eur J Med Chem, 2021).

Molecules are shown by their SMILES.

As usually defined, the IC50 is the concentration at which inhibition is half-maximal.

Assay [1] concerns Panel NCI-60 (60 carcinoma cell lines). The assay is described as follows: Growth inhibition of human panel NCI-60 (60 carcinoma cells) assessed as growth percent at 10 uM measured after 48 hrs by SRB assay relative to control. It counts as functional. The conditions noted are these: read-out: Activity. For orientation: The SRB assay estimates cell density from bound dye.
In assay [2] the test system is NCI-H522. The assay is described as follows: Antiproliferative activity against human NCI-H522 cells assessed as cell growth inhibition measured after 48 hrs by SRB assay. It counts as functional, cell-based. The conditions noted are these: NCI-H522, 48 h.
Assay [3] deals with SK-MEL-5. Put plainly: Antiproliferative activity against human SK-MEL-5 cells assessed as cell growth inhibition measured after 48 hrs by SRB assay. The assay is classed as functional, cell-based. The conditions noted are these: SK-MEL-5, 48 h.
The subject of assay [4] is MOLT-4. Put plainly: Antiproliferative activity against human MOLT-4 cells assessed as cell growth inhibition measured after 48 hrs by SRB assay. The assay is classed as functional, cell-based. The conditions noted are these: MOLT-4, 48 h.
The test system of assay [5] is HCC 2998. The assay is described as follows: Antiproliferative activity against human HCC 2998 cells assessed as cell growth inhibition measured after 48 hrs by SRB assay. The conditions noted are these: HCC 2998, 48 h. The assay is classed as functional, cell-based.
In assay [6] the test system is OVCAR-4. Put plainly: Antiproliferative activity against human OVCAR-4 cells assessed as cell growth inhibition measured after 48 hrs by SRB assay. The conditions noted are these: OVCAR-4, 48 h. The assay is classed as functional, cell-based.
The subject of assay [7] is UO-31. Put plainly: Antiproliferative activity against human UO-31 cells assessed as cell growth inhibition measured after 48 hrs by SRB assay. It counts as functional, cell-based. The conditions noted are these: UO-31, 48 h.
In assay [8] the test system is DU-145. Put plainly: Antiproliferative activity against human DU-145 cells assessed as cell growth inhibition measured after 48 hrs by SRB assay. The assay is classed as functional, cell-based. The conditions noted are these: DU-145, 48 h.
Assay [9] concerns MDA-MB-468. Put plainly: Antiproliferative activity against human MDA-MB-468 cells assessed as cell growth inhibition measured after 48 hrs by SRB assay. It counts as functional, cell-based. The conditions noted are these: MDA-MB-468, 48 h.
Assay [10] relates to HL-60(TB). Put plainly: Antiproliferative activity against human HL-60(TB) cells assessed as cell growth inhibition measured after 48 hrs by SRB assay. It counts as functional, cell-based. The conditions noted are these: HL-60, 48 h.
Assay [11] relates to NCI-H322M. Put plainly: Antiproliferative activity against human NCI-H322M cells assessed as cell growth inhibition measured after 48 hrs by SRB assay. The assay is classed as functional, cell-based.
The subject of assay [12] is SNB-75. Put plainly: Antiproliferative activity against human SNB-75 cells assessed as cell growth inhibition measured after 48 hrs by SRB assay. It counts as functional, cell-based. The conditions noted are these: SNB-75, 48 h.
The subject of assay [13] is U-251. The assay is described as follows: Antiproliferative activity against human U-251 cells assessed as cell growth inhibition measured after 48 hrs by SRB assay. The assay is classed as functional, cell-based. The conditions noted are these: U-251, 48 h.

Consider `Fc1ccc(CCOc2cccc(-c3nc4sccn4c3-c3ccncn3)c2)cc1`, for which the growth at 10 µM in [1] came to 96%. As for `Fc1ccc(COc2cccc(-c3nc4sccn4c3-c3ccccc3)c2)cc1`, the growth at 10 µM in assay [1] stood at 97.8%. Consider `CNC(=O)c1cc(Oc2ccc(NC(=O)Nc3ccc(Cl)c(C(F)(F)F)c3)cc2)ccn1` [SORAFENIB], for which the IC50 was 5.01 µM in assay [2] and 2.51 µM in assay [3]. In the case of `CS(=O)(=O)c1cccc(-c2c(-c3cccc(OCCc4ccccc4)c3)nc3sccn23)c1`, in assay [1], the growth at 10 µM was determined as 95.3%. For `C=CC(=O)N1CCC[C@@H](n2nc(-c3ccc(Oc4ccccc4)cc3)c3c(N)ncnc32)C1` [IBRUTINIB], the IC50 in assay [4] was found to be 3.98 µM; in [2] it was 0.06 µM; in [5], 15.8 µM; in [3], 6.31 µM; in assay [6], 7.94 µM; in assay [7], 1.26 µM. Besides, the IC50 came to 2 µM in assay [8]; 0.03 µM in assay [9]; 19.9 µM in assay [10]; 0.1 µM in assay [11]; 3.16 µM in assay [12]; 6.31 µM in assay [13]. Consider `CN(C)CCOc1ccc(-c2nc3sccn3c2-c2ccnc(S(C)(=O)=O)n2)cc1`, for which the growth at 10 µM in [1] stood at 102%. In the case of `Oc1cccc(-c2nc3sccn3c2-c2ccccc2)c1`, in assay [1], the growth at 10 µM amounted to 94%. `CC(C)N(CCOc1cccc(-c2nc3sccn3c2-c2ccnc(S(C)(=O)=O)n2)c1)C(C)C`: the growth at 10 µM in assay [1] was determined as 81.8%.

Consider `CC(C)N(CCOc1ccc(-c2nc3sccn3c2-c2ccnc(S(C)(=O)=O)n2)cc1)C(C)C`, for which the growth at 10 µM in assay [1] turned out to be 81.1%. In the case of `CS(=O)(=O)c1nccc(-c2c(-c3ccc(OCCN4CCOCC4)cc3)nc3sccn23)n1`, the growth at 10 µM in assay [1] worked out at 101%.

For `CS(=O)(=O)c1cccc(-c2c(-c3cccc(OCCc4ccc(F)cc4)c3)nc3sccn23)c1`, the growth at 10 µM in [1] turned out to be 82.9%.

Turning to `COc1cccc(-c2nc3sccn3c2-c2ccccc2)c1`, the growth at 10 µM in [1] amounted to 96.6%. With `COc1cccc(-c2nc3occn3c2-c2ccnc(S(C)(=O)=O)n2)c1`, in assay [1], the growth at 10 µM is 96%.

On to `Fc1ccc(COc2cccc(-c3nc4sccn4c3-c3ccncn3)c2)cc1`, for which, in assay [1], the growth at 10 µM amounted to 76.3%. On the same count and under the same terms, to `O=C(COc1cccc(-c2nc3sccn3c2-c2ccncn2)c1)c1ccccc1` belongs 97%; to `CS(=O)(=O)c1nccc(-c2c(-c3cccc(OCc4ccccc4)c3)nc3occn23)n1`, 101%. Take `CS(=O)(=O)c1cccc(-c2c(-c3cccc(OCC(=O)c4ccccc4)c3)nc3sccn23)c1`: the growth at 10 µM in [1] worked out at 91%. Take `CS(=O)(=O)c1nccc(-c2c(-c3ccc(OCCN4CCCC4)cc3)nc3sccn23)n1`: in assay [1], the growth at 10 µM turned out to be 101%.

In the case of `c1ccc(CCOc2cccc(-c3nc4sccn4c3-c3ccccc3)c2)cc1`, in assay [1], the growth at 10 µM worked out at 98.9%. For `CS(=O)(=O)c1nccc(-c2c(-c3ccc(OCCc4ccccc4)cc3)nc3sccn23)n1`, in [1], the growth at 10 µM was found to be 91.2%. Turning to `Oc1cccc(-c2nc3sccn3c2-c2ccncn2)c1`, the growth at 10 µM in assay [1] was determined as 85.5%. Take `O=C(COc1cccc(-c2nc3sccn3c2-c2ccccc2)c1)c1ccccc1`: the growth at 10 µM in assay [1] turned out to be 84.6%. Take `CN(C)CCOc1cccc(-c2nc3sccn3c2-c2ccnc(S(C)(=O)=O)n2)c1`: in assay [1], the growth at 10 µM came out at 93.7%. In the case of `CS(=O)(=O)c1nccc(-c2c(-c3cccc(OCCN4CCCC4)c3)nc3sccn23)n1`, the growth at 10 µM in [1] was found to be 94.2%. On the same count and under the same terms, to `CS(=O)(=O)c1nccc(-c2c(-c3ccc(O)cc3)nc3sccn23)n1` belongs 99.7%; to `CS(=O)(=O)c1cccc(-c2c(-c3cccc(OCc4ccccc4)c3)nc3sccn23)c1`, 87.6%; to `CS(=O)(=O)c1nccc(-c2c(-c3cccc(OCc4ccc(F)cc4)c3)nc3occn23)n1`, 89.7%.

In the case of `CS(=O)(=O)c1nccc(-c2c(-c3cccc(OS(N)(=O)=O)c3)nc3sccn23)n1`, in [1], the growth at 10 µM amounted to 97.9%.

As for `Fc1ccc(CCOc2cccc(-c3nc4sccn4c3-c3ccccc3)c2)cc1`, in assay [1], the growth at 10 µM is 87.5%. `CS(=O)(=O)c1nccc(-c2c(-c3cccc(OCCc4ccccc4)c3)nc3sccn23)n1`: the growth at 10 µM in assay [1] worked out at 96%.

`c1ccc(COc2cccc(-c3nc4sccn4c3-c3ccccc3)c2)cc1`: the growth at 10 µM in assay [1] turned out to be 99.3%.

`CS(=O)(=O)c1cccc(-c2c(-c3cccc(OCc4ccc(F)cc4)c3)nc3sccn23)c1`: the growth at 10 µM in [1] is 74.7%.

Regarding `CS(=O)(=O)c1nccc(-c2c(-c3cccc(OCCN4CCOCC4)c3)nc3sccn23)n1`, in assay [1], the growth at 10 µM amounted to 83.5%. For the compound `CS(=O)(=O)c1nccc(-c2c(-c3cccc(O)c3)nc3sccn23)n1`, in assay [1], the growth at 10 µM is 90%. As to `CS(=O)(=O)c1nccc(-c2c(-c3ccc(OCc4ccccc4)cc3)nc3sccn23)n1`, the growth at 10 µM in assay [1] is 95.1%. Same read-out and setting: with `c1ccc(CCOc2cccc(-c3nc4sccn4c3-c3ccncn3)c2)cc1` the figure was 96.4%; with `CS(=O)(=O)c1nccc(-c2c(-c3cccc(OCC(=O)c4ccccc4)c3)nc3sccn23)n1`, 94%. Turning to `CS(=O)(=O)c1nccc(-c2c(-c3cccc(OCCc4ccc(F)cc4)c3)nc3sccn23)n1`, the growth at 10 µM in assay [1] was found to be 91.6%. In the case of `COc1cccc(-c2nc3sccn3c2-c2cccc(S(C)(=O)=O)c2)c1`, the growth at 10 µM in assay [1] worked out at 99.8%. For the compound `CS(=O)(=O)c1nccc(-c2c(-c3cccc(O)c3)nc3occn23)n1`, the growth at 10 µM in assay [1] was 102%. Still for that read-out and setting: to `COc1ccc(-c2nc3sccn3c2-c2ccnc(S(C)(=O)=O)n2)cc1` belongs 73%; to `CS(=O)(=O)c1cccc(-c2c(-c3cccc(O)c3)nc3sccn23)c1`, 99.2%.
